For one series, the system named is Anas platyrhynchos. The following applies: reproductive.
Another series relates to Apis mellifera. The following applies: acute, mortality.
Another series has as its system Bibionidae. The following applies: chronic/long-term; duration: 28 days.
Another series relates to Colinus virginianus. The note with it: acute; oral; mortality.
The subject of a further series is Daphnia magna. The following applies: chronic/long-term; duration: 21 days.
Another series deals with Folsomia candida. The note with it: chronic/long-term; duration: 28 days; reproduction.
The subject of the next series is Oncorhynchus mykiss. The following applies: acute; duration: 96 hours; mortality.
Another series has as its system Tagia sp. The following applies: chronic/long-term; duration: 56 days; reproduction.
In a further series the test system is Aphidius rhopalosiphi. The series can be described thus: LR50; higher = less toxic. The note with it: acute; mortality.

By NOAEL is commonly meant the highest tested level that showed no adverse finding. A word on the LC50: it is the concentration that kills 50% of the test population.

Converted amounts (≈) assume the structure as drawn.

As to `CCOC(=O)Nc1cccc(OC(=O)Nc2ccccc2)c1` [Desmedipham], the NOAEL with Anas platyrhynchos was determined as 11 mg/kg-day; in the series on Rattus norvegicus (chronic, duration: 2 years, hematological), 3.2 mg/kg-day; in the series with Rattus norvegicus (reproduction developmental, M, reproduction), 4 mg/kg-day; in the series on Rattus norvegicus (subchronic, duration: 90 days, oral, hematological), 5.2 mg/kg-day. For the same compound, the LD50 is > 100 µg/piece in the series with Apis mellifera (dermal); > 101 µg/piece in the series on Apis mellifera (oral, unspecified); > 2000 mg/kg-day with Colinus virginianus; > 5000 mg/kg-day in the series with Rattus norvegicus (acute, oral, mortality). The NOEC in the series on Bibionidae came out at 0.14 mg/L; in the series with Daphnia magna it was 0.02 mg/L; in the series with Folsomia candida, 158 mg/kg; in the series with Tagia sp. it was 64 mg/kg. The compound further returned an LC50 in the series with Oncorhynchus mykiss of 1.41 µg/mL (≈ 4.7 µM). Besides, the LR50 in the series with Aphidius rhopalosiphi is 63.8 g/ha.

Values taken from EPA's ToxValDB 9.5 (doi:10.2903/j.efsa.2018.5150).
